Patent US20220363689A1, “INHIBITOR OF BTK AND MUTANTS THEREOF” (Newave Pharmaceutical Inc., priority 2019, published 2022)
pIC50: −log10 of the molar value.

How the values were obtained:
BTK = BTK (Homo sapiens, UniProt Q06187); test: Caliper-based kinase assay, Cys-containing kinase panel: BTK; format: biochemical; conditions: for pIC50: Cys-481 homologous kinase panel
Text: A Caliper-based kinase assay (Caliper Life Sciences, Hopkinton, Mass.) was used to measure inhibition of kinase activity of compounds of the present disclosure.

WT BTK [1] = target: T1, WT BTK (Homo sapiens, UniProt Q06187); test: In vitro dialysis assay (irreversibility assay), WT BTK; format: biochemical; conditions: reversible or irreversible/covalent inhibition after 24 h dialysis
T1 sequence (Q06187 whole entry): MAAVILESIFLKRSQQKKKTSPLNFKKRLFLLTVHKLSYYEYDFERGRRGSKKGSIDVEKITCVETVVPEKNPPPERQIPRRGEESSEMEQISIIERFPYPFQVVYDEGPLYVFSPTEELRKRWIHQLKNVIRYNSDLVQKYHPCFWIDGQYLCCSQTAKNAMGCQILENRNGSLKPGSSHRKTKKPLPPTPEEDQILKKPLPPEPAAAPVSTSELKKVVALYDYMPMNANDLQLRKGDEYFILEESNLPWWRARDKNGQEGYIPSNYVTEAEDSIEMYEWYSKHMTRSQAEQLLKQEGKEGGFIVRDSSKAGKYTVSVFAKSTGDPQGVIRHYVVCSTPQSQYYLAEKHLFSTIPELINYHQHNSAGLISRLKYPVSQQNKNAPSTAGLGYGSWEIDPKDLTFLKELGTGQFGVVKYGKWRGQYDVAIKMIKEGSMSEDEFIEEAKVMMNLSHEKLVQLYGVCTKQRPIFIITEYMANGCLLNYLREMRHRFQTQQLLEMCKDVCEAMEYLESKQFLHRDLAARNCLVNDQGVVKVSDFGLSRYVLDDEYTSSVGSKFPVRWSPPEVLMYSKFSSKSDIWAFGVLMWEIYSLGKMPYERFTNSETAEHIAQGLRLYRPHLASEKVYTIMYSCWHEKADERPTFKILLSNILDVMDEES
Procedure, shortened: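 Compound-BTK complex was dialyzed 24 hr against […] (cumulative factor >160,000×). Residual activity was then […] and 1 mM substrate peptide and compared with non-dialyzed samples. Buffer: 100 mM HEPES pH 7.5, 5 mM MgCl2, 1 mM DTT, BSA, Triton X-100.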

WT BTK [2] = target: T1, WT BTK; test: Caliper-based kinase assay, WT BTK; format: biochemical; conditions: 0.5 nM enzyme, ATP 16 μM, room temperature 3 h; read-out: WT BTK IC50 (nM) (irreversible inhibition)
Procedure: A Caliper-based kinase assay (Caliper Life Sciences, Hopkinton, Mass.) was used to measure inhibition of WT and […] Btk kinase activity of a compound of the present disclosure. […] The reaction was then terminated with EDTA, final concentration 20 mM and the phosphorylated reaction product was quantified on a Caliper Desktop Profiler (Caliper LabChip 3000).

Mice PK study = format: in vivo; conditions: plasma, CD-1 mouse, po, 10 mg/kg; for half-life: read-out: t ½ (converted)
Procedure: The pharmacokinetics of compounds were evaluated in CD-1 mouse via Intravenous and Oral Administration. The IV dose was administered as a slow bolus in the Jugular vein, and oral doses were administered by gavage. The formulation for IV dosing is 5% DMSO in 20% HPBCD in water, and the PO formulation is 2.5% DMSO, 10% EtOH, 20% Cremphor EL, 67.5% D5W. The PK time point for the IV arm was 5, 15, 30 min, 1, 2, 4, 6, 8, 12, 24 hours post dose, and for PO arm was 15, 30 min, 1, 2, 4, 6, 8, 12, 24 hours post dose. Approximately 0.03 mL blood was collected at each time point. Blood of each sample was transferred into plastic micro centrifuge tubes containing EDTA-K2 and plasma was collected within 15 min by centrifugation at 4000 g for 5 minutes in a 4° C. centrifuge. Plasma samples were stored in polypropylene tubes. The samples were stored in a freezer at −75±15° C. prior to analysis. Concentrations of compounds in the plasma samples were analyzed using a LC-MS/MS method. WinNonlin (Phoenix™, version 6.1) or other similar software was used for pharmacokinetic calculations. The following pharmacokinetic parameters were calculated, whenever possible from the plasma concentration versus time data: IV administration: C0, CL, Vd, T1/2, AUCinf, AUClast, MRT, Number of Points for Regression; PO administration: Cmax, Tmax, T1/2, AUCinf, AUClast, F %, Number of Points for Regression. The pharmacokinetic data was described using descriptive statistics such as mean, standard deviation. Additional pharmacokinetic or statistical analysis was performed at the discretion of the contributing scientist, and was documented in the data summary. For comparison purpose, the PK results of oral dosing of po, 25 mg/kg of Acalbrutinib, a FDA approved BTK inhibitor, were obtained using the same methods and shown in the Table below.

BMX = target: T2, BMX (Homo sapiens, UniProt P51813); test: Caliper-based kinase assay, off-target BMX; format: biochemical; conditions: Cys-481 homologous kinase panel
T2 sequence (P51813 1-675): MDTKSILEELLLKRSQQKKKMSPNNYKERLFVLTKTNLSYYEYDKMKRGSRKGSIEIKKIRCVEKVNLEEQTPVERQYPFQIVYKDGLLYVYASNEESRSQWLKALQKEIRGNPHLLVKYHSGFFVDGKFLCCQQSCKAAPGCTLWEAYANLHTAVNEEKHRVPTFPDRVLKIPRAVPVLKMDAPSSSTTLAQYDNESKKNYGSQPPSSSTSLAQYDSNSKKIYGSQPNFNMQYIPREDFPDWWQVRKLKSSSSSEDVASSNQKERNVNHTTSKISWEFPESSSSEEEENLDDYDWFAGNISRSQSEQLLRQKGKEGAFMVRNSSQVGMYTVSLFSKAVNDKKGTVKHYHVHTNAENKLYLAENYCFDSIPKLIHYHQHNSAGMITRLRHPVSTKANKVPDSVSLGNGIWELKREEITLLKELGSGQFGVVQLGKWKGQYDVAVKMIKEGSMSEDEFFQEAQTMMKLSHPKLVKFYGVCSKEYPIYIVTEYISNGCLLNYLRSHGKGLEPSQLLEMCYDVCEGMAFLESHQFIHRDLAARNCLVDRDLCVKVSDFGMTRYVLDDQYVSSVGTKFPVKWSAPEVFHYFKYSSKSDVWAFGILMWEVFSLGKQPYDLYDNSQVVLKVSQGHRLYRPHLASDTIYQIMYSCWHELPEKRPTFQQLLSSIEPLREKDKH
Text: A Caliper-based kinase assay (Caliper Life Sciences, Hopkinton, Mass.) was used to measure inhibition of kinase activity of compounds of the present disclosure. […]

[3] = test system: CD69 surface expression in primary human B cells; test: Inhibition of CD69 surface expression in primary human B cells; format: cell-based; conditions: B-cell; 1 h pre-incubation, anti-human IgM stimulation 19 hr
Procedure: Primary human B cells (CD20+, purified by negative selection) were obtained from StemCell Technologies. Prior to experiment, the cells were thawed and washed two times with RPMI growth media supplemented with 10% FBS. The cells were seeded into 24 well plate at a density of 4×10^5 cells/per a well in a total volume of 500 uL. 6 hr after plating, serial dilutions of NW-1-96 were added. Control wells received DMSO only (0.1%). After 1 h pre-incubation with compound, the cells were stimulated for 19 hr with goat anti-human IgM F(ab′)2 (10 μg/mL; ThermoFisher). After stimulation, the cells were fixed by addition of paraformaldehyde to a final concentration of 4% and incubated for 20 min at room temperature. Fixed cells were collected into Eppendorf tubes, centrifuged at 1,000×g and washed three times with 50 mM Tris pH8.0, 100 mM NaCl. After washes, the cells were re-suspended in 100 uL of 50 mM Tris pH8.0, 100 mM NaCl, 0.1% BSA supplemented with 5 ug/mL of FITC-conjugated anti-CD69 antibody (ThermoFisher) and incubated at room temperature for 2 hr. The cells were next washed 3 times with 10 volumes of 50 mM Tris pH8.0, 100 mM NaCl, 0.1% BSA and re-suspended in 150 ul of the same buffer. […] CD69 staining was detected on Synergy Neo2 fluorescent plate reader: […].

BTK, sequence (Q06187 whole entry): as the sequence (Q06187 whole entry) above

pIC50 (BTK) | Conclusion (WT BTK) (WT BTK [1]) | IC50 (WT BTK [2]) | AUC (Mice PK study) | half-life (Mice PK study) | pIC50 (BMX) | pIC50 [3] | Selectivity among kinases that contain a Cys homologous to Cys-481 in BTK (BTK; BTK versus BMX, TEC, TXK, BLK, HER4, EGFR, HER2) | Structure (SMILES)
10.00 | Irreversible/covalent inhibition | 0.08 nM | 11600 ng·h/mL | 1 h | 6.81 |  |  | C=CC(=O)Nc1cc(Nc2nc(-c3ccnc(N4CCn5c(cc6c5CC(C)(C)C6)C4=O)c3CO)cn(C)c2=O)ccc1N1CCN(C2CCOCC2)C[C@H]1C(F)(F)F [Example 48-S, N-(5-[[6-(2-[4,4-dimethyl-9-oxo-1,10-diazatricyclo[6.4.0.0^[2,6]]dodeca-2(6),7-dien-10-yl]-3-(hydroxymethyl)pyridin-4-yl)-4-methyl-3-oxopyrazin-2-yl]amino]-2-[(2S)-4-(oxan-4-yl)-2-(trifluoromethyl)piperazin-1-yl]phenyl)prop-2-enamide]
9.60 | Irreversible/covalent inhibition | 0.43 nM | 74800 ng·h/mL | 1.7 h | 6.74 | 8.03 | excellent selectivity | C=CC(=O)Nc1cc(Nc2nc(-c3ccnc(N4CCc5c(sc6c5CCCC6)C4=O)c3CO)cn(C)c2=O)ccc1N1CCN(C2CCOCC2)C[C@H]1C(F)(F)F [Example 55-S, N-[5-([6-[3-(hydroxymethyl)-2-[6-oxo-8-thia-5-azatricyclo[7.4.0.0^[2,7]]trideca-1(9), 2(7)-dien-5-yl]pyridin-4-yl]-4-methyl-3-oxopyrazin-2-yl]amino)-2-[(2S)-4-(oxan-4-yl)-2-(trifluoromethyl)piperazin-1-yl]phenyl]prop-2-enamide]
 |  |  |  |  | 9.44 | 6.96 |  | CC(C)(/C=C(\C#N)C(=O)N1CCC[C@@H](n2nc(-c3ccc(Oc4ccccc4)cc3F)c3c(N)ncnc32)C1)N1CCN(C2COC2)CC1 [PRN-1008, reference compound]
